Here are results for twelve compounds from PubChem BioAssay (NCI).

Holding throughout (experiment): inhibition of tumour cell growth, NCI panel, 48 h
Assay [1] concerns SF-295 CNS.
The test system of assay [2] is HCT-116 colon.
In assay [3] the test system is SNB-19 CNS.
Assay [4] has as its system U251 CNS.
Assay [5] concerns HCT-15 colon.
Assay [6] relates to HCC-2998 colon.
For assay [7], the system named is ACHN renal.
The test system of assay [8] is A549 NSCLC.
Assay [9] has as its system KM12 colon.
Assay [10] relates to 786-0 renal.
For assay [11], the system named is NCI-H23 lung.
For assay [12], the system named is OVCAR-4 ovarian.
Assay [13] deals with SN12C renal.
Assay [14] relates to MDA-N.
The test system of assay [15] is BT-549 breast.
The subject of assay [16] is OVCAR-5 ovarian.
Assay [17] deals with EKVX NSCLC.

Molecules are shown by their SMILES.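 Interpolation was linear, between the two tested concentrations surrounding the appropriate level; five concentrations were tested over 48 hours in 96-well plates. TGI marks complete inhibition of growth.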

For `O=C(NCCCCCCCCNC(=O)Nc1cccc2ccccc12)Nc1cccc2ccccc12`, the TGI in assay [1] was more than 100 µM; in [2], more than 100 µM; in assay [3], more than 100 µM; in [4], 8.49 µM; in assay [5] it was more than 100 µM; in assay [6], more than 100 µM. For the same compound, the TGI is more than 100 µM in [7]; more than 100 µM in assay [8]; more than 100 µM in [9]; 24.9 µM in [10]; more than 100 µM in assay [11]; 4.18 µM in assay [12]. Besides, the TGI in [13] is 59.3 µM; in assay [14], more than 100 µM; in [15], more than 100 µM; in [16], more than 100 µM; in assay [17], more than 100 µM.

In the case of `Cn1cc(NC(=O)Nc2cc(C(=O)Nc3cc(C(=O)Nc4ccc5cc(S(=O)(=O)O)cc(S(=O)(=O)O)c5c4)n(C)c3)n(C)c2)cc1C(=O)Nc1cc(C(=O)Nc2ccc3cc(S(=O)(=O)O)cc(S(=O)(=O)O)c3c2)n(C)c1`, the TGI in assay [1], in assay [2], in [3], in assay [4], in assay [5] and in assay [6] was more than 100 µM each time. For the same compound, the TGI in assay [7], in assay [8], in [9], in assay [10], in [11] and in [12] was more than 100 µM in each case. Besides, the TGI in [13], in [14], in assay [15], in assay [16] and in [17] was more than 100 µM throughout.

As to `COCN1C(=O)[C@@H]2C[C@@H](O)CN2C(=O)c2ccccc21`, the TGI in [1], in [2], in assay [3], in assay [4], in assay [5] and in [6] was more than 100 µM throughout. Besides, the TGI in assay [7], in [8], in [9], in [10], in assay [11] and in assay [12] was more than 100 µM in each case. For the same compound, the TGI in assay [13], in [14], in assay [15], in [16] and in [17] was more than 100 µM in each case.

Regarding `Cc1n[nH]c(=O)n1C1CC1`, the TGI in assay [1], in assay [2], in [3], in assay [4], in assay [5] and in [6] was more than 100 µM each time. For the same compound, the TGI in assay [7], in assay [8], in assay [9], in assay [10], in [11] and in assay [12] was more than 100 µM throughout. Moreover, the TGI in [13], in [14], in assay [15], in [16] and in [17] was more than 100 µM throughout.

Turning to `CCOC(=O)C1=C(C(=O)OCC)SC2(S1)C(C(=O)OCC)=C(C(=O)OCC)Sc1c2ssc1=O`, the TGI in [1] worked out at 28.8 µM; in assay [2], 2.3 µM; in [3], 15.4 µM; in assay [4] it was 3.95 µM; in assay [5], 2.72 µM; in assay [6] it was 5.89 µM. Further, the TGI is 3.11 µM in [7]; 5.38 µM in assay [8]; 10.3 µM in assay [9]; 2.13 µM in assay [10]; 4.02 µM in assay [11]; 2.68 µM in assay [12]. Further, the TGI in assay [13] worked out at 2.48 µM; in assay [14], 4.36 µM; in [15], 4.51 µM; in [16], 12.4 µM; in assay [17], 5.78 µM.

Turning to `Cc1cccc(N=Nc2c(C)nn(C(=O)CC(=O)Nc3ccc(Cl)cc3)c2C)c1`, the TGI in assay [1], in [2], in assay [3], in [4], in assay [5] and in assay [6] was more than 100 µM in each case. The TGI in [7], in [8], in assay [9], in assay [10], in assay [11] and in [12] was more than 100 µM in each case. In addition, the TGI in [13] was more than 100 µM; in assay [14] it was more than 100 µM; in assay [15] it was more than 100 µM; in [16], more than 100 µM; in [17] it was 96.9 µM.

Turning to `CC(NNC(=O)c1ccncc1)c1ccccc1` (centres undefined), the TGI in assay [1], in assay [2], in assay [3], in assay [4], in assay [5] and in assay [6] was more than 100 µM each time. The TGI in assay [7], in assay [8], in [9], in assay [10], in [11] and in assay [12] was more than 100 µM in each case. The TGI in assay [13], in assay [14], in [15], in assay [16] and in assay [17] was more than 100 µM in each case.

Regarding `COc1c(Sc2c(SCSc3cnc4ccccc4c3Sc3cnc4ccccc4c3OC)cnc3ccccc23)cnc2ccccc12`, the TGI in assay [1] was more than 100 µM; in assay [2], more than 100 µM; in assay [3], 77.3 µM; in assay [4], more than 100 µM; in assay [5] it was more than 100 µM; in assay [6], more than 100 µM. Moreover, the TGI in assay [7], in assay [8], in assay [9], in assay [10], in [11] and in assay [12] was more than 100 µM throughout. Further, the TGI in [13], in [14], in assay [15], in assay [16] and in assay [17] was more than 100 µM each time.

Take `Nc1nc(Cl)c(N)c(NCC2(CO)CCC(OCc3ccccc3)C2)n1` (centres undefined): the TGI in assay [1], in assay [2], in assay [3], in [4], in assay [5] and in [6] was more than 100 µM in each case. Also, the TGI in assay [7], in assay [8], in [9], in assay [10], in assay [11] and in assay [12] was more than 100 µM each time. Also, the TGI in assay [13], in assay [14], in [15], in assay [16] and in assay [17] was more than 100 µM each time.

On to `CC(=O)Nc1ccc(S(=O)(=O)c2nnc(NC(C)=O)s2)cc1`, for which the TGI in [1], in assay [2], in assay [3], in assay [4], in assay [5] and in [6] was more than 100 µM each time. Also, the TGI in assay [7], in assay [8], in assay [9], in assay [10], in assay [11] and in assay [12] was more than 100 µM in each case. The TGI in [13], in assay [14], in assay [15], in assay [16] and in assay [17] was more than 100 µM in each case.

As to `O=C(CCN1CCCCC1)Nc1ccc2c(c1)C(=O)c1ccc(NC(=O)CCN3CCCCC3)cc1C2=O`, the TGI turned out to be 10.4 µM in [1]; 3.2 µM in assay [2]; 10.1 µM in [3]; 9.97 µM in [4]; 7.63 µM in assay [5]; 13.5 µM in assay [6]. The TGI came out at 23.9 µM in [7]; 10.3 µM in assay [8]; 3.26 µM in [9]; 3.8 µM in [10]; 12.5 µM in [11]; 8.45 µM in assay [12]. For the same compound, the TGI in assay [13] came out at 18 µM; in assay [14], 3.03 µM; in assay [15] it was 27.8 µM; in assay [16], 31.4 µM; in [17], 30.2 µM.

Consider `CCCC(=O)OCC1OC(n2cc(F)c(=O)[nH]c2=O)C(F)C1O` (centres undefined), for which the TGI in assay [1], in assay [2], in assay [3], in assay [4], in assay [5] and in assay [6] was more than 100 µM in each case. In addition, the TGI in assay [7], in [8], in [9], in assay [10], in assay [11] and in [12] was more than 100 µM each time. Moreover, the TGI in assay [13], in assay [14], in [15], in [16] and in assay [17] was more than 100 µM each time.
